Data from article PMC11831560, “Development of the Pyrido[2,3-d]pyrimidin-7(8H)-one Scaffold toward Potent and Selective NUAK1 Inhibitors” (ACS Medicinal Chemistry Letters, 2025).
Several values for one entry are separate records, joined by “and”; a condition that tells them apart may be missing. Equal values may be shown once.

What was measured:
Experiment in all cases: Kinase panel radiometric filter binding (33P-ATP)
Format in all cases: biochemical
Parameters in all cases: % activity remaining: dose or concentration left out as unconfirmed
IGF-1R = IGF-1R (Homo sapiens, UniProt P08069); conditions: for % activity remaining: IGF-1R
Protocol: (§1) Table S4: AMPKA kinase activity data (ADP-Glo assay)
(§2) Compound pIC50 (Fold selectivity
(§3) Table S5. Kinase selectivity screening for 9 and 24 at 1 µM against a general kinase panel of 140 targets
(§4) in radiometric filter binding assay using 33P-γ−ATP at the MRC PPU International Centre for Kinase
(§5) Profiling, University of Dundee. pIC50 values were determined for compounds with <20% activity
(§6) Kinase activity s.d. pIC50 activity s.d. pIC50

MELK = MELK (Homo sapiens, UniProt Q14680); conditions: for % activity remaining: MELK
Protocol: as §1, §2, §3, §4, §5, §6

ULK2 = molecular target: T1, ULK2 (Homo sapiens, UniProt Q8IYT8); conditions: for % activity remaining: ULK2
T1 sequence (Q8IYT8 1-1036): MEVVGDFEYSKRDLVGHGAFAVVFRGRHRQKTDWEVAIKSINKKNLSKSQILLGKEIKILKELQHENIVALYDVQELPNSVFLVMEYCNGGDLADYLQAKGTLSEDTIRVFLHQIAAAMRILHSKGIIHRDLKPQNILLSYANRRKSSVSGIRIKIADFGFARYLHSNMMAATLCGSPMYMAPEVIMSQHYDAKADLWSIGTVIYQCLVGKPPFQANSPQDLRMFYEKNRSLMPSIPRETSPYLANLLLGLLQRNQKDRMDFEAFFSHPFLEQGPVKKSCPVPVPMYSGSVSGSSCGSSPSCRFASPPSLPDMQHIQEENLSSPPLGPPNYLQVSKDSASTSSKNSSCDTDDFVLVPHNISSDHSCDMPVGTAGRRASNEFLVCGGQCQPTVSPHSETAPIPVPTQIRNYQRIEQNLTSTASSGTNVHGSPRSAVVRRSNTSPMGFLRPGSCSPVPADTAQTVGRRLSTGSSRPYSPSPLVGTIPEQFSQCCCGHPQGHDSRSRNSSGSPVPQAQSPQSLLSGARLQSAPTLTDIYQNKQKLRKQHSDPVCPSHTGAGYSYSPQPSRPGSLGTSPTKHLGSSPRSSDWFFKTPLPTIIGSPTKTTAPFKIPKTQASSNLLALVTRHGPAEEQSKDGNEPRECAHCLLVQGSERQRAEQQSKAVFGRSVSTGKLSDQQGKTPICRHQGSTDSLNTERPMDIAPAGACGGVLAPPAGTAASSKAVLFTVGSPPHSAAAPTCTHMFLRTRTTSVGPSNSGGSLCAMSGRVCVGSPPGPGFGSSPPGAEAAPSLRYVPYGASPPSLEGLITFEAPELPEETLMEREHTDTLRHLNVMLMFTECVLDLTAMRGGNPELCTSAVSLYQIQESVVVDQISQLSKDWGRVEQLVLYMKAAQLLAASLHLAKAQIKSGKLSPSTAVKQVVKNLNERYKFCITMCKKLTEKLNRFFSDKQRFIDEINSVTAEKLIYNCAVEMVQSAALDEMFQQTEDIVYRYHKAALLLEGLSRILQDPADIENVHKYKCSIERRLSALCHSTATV
Protocol: as §1, §2, §3, §4, §5, §6

JAK3 = molecular target: T2, JAK3 (Homo sapiens, UniProt P52333); conditions: for % activity remaining: JAK3
T2 sequence (P52333 1-1124): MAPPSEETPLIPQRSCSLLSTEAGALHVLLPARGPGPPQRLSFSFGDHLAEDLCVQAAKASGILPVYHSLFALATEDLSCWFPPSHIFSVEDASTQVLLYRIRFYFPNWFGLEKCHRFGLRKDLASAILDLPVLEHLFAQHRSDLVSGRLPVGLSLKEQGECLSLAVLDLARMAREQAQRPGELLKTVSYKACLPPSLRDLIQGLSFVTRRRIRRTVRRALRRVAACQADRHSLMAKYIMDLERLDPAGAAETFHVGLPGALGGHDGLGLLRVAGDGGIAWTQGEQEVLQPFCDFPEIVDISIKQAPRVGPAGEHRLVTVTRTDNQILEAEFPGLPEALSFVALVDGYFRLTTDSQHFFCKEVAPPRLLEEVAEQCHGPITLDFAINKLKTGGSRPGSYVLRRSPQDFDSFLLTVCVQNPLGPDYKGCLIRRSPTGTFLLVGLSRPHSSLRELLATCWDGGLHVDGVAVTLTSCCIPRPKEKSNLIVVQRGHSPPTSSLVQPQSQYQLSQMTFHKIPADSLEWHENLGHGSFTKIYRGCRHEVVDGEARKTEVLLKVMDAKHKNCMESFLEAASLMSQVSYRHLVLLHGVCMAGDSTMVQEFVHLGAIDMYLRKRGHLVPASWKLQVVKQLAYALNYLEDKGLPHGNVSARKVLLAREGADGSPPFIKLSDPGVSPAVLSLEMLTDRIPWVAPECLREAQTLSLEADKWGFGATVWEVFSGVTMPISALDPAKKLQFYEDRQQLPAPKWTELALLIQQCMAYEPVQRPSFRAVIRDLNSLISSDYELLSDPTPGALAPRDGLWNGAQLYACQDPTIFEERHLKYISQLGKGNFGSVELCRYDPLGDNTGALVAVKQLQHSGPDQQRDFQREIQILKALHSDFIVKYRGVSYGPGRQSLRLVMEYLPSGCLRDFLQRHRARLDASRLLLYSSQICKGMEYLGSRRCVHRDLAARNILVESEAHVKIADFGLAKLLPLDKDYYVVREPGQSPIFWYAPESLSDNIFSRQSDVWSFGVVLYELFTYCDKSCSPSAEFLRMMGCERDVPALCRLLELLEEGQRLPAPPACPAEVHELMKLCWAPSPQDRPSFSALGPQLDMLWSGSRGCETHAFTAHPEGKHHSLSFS
Protocol: as §1, §2, §3, §4, §5, §6

TAK1 = molecular target: T3, TAK1 (Homo sapiens, UniProt O43318); conditions: for % activity remaining: TAK1
T3 sequence (O43318 1-303 limits assumed): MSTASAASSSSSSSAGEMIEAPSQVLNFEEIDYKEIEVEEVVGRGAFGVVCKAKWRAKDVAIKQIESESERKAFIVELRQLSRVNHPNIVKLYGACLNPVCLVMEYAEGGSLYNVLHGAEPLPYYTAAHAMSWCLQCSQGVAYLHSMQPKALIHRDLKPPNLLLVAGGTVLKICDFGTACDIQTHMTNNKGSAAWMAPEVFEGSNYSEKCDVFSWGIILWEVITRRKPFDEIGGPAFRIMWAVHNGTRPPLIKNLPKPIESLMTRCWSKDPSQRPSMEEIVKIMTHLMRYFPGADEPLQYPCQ
Protocol: as §1, §2, §3, §4, §5, §6

IR = IR (Homo sapiens, UniProt P06213); conditions: for % activity remaining: IR
Protocol: as §1, §2, §3, §4, §5, §6

[1] = radiometric filter binding panel

IR, sequence (P06213 28-1382): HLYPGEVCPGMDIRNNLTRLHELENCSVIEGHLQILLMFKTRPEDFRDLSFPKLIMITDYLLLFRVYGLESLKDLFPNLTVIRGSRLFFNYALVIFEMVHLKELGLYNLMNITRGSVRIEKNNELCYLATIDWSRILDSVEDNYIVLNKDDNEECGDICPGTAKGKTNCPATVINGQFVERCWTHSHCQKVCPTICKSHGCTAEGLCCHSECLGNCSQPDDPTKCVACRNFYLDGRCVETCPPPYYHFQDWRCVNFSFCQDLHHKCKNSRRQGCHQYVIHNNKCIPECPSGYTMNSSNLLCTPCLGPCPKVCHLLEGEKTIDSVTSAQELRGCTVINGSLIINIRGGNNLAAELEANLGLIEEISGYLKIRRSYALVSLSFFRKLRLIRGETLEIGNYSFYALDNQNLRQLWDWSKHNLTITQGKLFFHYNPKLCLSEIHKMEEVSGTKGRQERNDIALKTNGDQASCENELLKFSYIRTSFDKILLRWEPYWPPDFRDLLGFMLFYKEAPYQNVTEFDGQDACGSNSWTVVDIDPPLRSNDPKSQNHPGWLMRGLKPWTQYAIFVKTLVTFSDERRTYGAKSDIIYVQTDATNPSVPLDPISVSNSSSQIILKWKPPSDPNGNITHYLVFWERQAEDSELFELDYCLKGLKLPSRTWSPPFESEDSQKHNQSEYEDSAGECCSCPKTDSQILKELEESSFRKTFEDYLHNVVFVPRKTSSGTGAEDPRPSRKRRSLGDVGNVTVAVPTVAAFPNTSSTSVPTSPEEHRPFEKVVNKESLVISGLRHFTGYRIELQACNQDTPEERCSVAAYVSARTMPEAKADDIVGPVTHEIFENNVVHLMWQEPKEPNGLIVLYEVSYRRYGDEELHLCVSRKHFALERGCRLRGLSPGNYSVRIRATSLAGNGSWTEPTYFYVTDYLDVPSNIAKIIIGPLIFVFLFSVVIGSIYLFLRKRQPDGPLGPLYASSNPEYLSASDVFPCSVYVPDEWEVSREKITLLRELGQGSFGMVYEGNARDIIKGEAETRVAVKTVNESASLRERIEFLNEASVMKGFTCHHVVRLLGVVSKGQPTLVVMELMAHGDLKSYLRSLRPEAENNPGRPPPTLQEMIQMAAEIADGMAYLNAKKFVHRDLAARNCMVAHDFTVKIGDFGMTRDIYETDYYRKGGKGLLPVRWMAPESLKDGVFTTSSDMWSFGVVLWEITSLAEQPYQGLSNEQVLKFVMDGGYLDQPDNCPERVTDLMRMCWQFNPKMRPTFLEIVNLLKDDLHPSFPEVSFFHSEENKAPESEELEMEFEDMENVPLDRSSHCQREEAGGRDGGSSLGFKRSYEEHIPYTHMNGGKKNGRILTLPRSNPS
MELK, sequence (Q14680 whole entry, species assumed): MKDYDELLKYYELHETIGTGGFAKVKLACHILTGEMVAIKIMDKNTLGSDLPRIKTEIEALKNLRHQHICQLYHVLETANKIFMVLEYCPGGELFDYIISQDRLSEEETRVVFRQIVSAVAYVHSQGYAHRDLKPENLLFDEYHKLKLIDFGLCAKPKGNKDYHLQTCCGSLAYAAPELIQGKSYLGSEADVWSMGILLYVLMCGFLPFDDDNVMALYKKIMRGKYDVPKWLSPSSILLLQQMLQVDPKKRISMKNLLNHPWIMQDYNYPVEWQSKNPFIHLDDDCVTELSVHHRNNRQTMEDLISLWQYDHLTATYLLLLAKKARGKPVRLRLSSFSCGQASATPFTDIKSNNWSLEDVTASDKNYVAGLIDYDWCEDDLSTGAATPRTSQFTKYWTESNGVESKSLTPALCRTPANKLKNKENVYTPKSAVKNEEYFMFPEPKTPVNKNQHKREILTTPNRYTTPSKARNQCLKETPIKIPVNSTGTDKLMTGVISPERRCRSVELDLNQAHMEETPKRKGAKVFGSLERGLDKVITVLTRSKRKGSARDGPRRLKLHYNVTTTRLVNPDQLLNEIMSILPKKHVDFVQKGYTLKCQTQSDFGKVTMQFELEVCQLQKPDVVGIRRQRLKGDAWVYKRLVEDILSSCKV
IGF-1R, sequence (P08069 31-1367, species assumed): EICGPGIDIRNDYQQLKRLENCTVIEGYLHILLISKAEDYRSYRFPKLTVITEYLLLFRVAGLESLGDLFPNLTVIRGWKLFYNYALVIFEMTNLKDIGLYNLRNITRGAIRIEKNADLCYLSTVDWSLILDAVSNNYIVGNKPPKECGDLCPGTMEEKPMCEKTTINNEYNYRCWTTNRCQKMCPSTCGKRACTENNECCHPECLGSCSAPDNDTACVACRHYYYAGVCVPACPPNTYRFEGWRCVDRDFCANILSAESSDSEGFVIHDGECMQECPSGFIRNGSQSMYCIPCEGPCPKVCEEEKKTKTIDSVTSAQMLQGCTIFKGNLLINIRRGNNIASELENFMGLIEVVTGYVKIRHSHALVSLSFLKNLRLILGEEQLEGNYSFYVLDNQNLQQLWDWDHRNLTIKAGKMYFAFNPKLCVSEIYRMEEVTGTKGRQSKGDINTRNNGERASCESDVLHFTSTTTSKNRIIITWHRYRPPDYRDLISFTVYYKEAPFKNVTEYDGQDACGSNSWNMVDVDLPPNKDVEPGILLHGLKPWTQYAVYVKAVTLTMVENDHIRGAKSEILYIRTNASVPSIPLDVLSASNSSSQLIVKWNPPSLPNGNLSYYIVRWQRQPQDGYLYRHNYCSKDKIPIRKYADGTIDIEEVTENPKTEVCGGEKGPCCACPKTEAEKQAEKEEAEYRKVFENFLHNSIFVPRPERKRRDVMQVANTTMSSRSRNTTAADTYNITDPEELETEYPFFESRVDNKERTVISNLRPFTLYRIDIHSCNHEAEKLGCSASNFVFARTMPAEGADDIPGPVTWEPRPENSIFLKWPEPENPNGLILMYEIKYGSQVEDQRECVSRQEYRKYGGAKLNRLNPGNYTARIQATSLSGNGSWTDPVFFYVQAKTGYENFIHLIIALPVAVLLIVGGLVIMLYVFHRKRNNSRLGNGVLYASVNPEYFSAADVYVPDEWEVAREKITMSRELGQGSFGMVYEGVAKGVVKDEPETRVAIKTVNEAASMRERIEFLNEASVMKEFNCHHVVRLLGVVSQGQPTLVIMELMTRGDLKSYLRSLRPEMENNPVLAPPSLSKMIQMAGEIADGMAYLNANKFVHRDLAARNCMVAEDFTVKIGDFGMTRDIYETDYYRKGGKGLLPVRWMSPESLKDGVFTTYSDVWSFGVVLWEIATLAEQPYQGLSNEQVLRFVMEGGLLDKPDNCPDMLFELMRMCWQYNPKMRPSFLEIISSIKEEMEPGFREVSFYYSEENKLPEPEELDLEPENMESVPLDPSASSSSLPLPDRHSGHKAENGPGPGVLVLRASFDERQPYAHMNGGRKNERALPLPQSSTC

**Q.** What does the source list for CN1C2CC1CN(c1ccc(Nc3ncc4ccn(CC5CCOCC5)c4n3)cc1)C2 [Compound 24]?
**A.** % activity remaining (IGF-1R): 104%; % activity remaining (MELK): 95%; % activity remaining (ULK2): 75%; % activity remaining (JAK3): 7%; JAK3 pIC50 (JAK3; [1]): 7.6; IC50 (JAK3; radiometric filter binding panel, read-out: JAK3 pIC50 (converted)): 23.4 nM; % activity remaining (TAK1): 110%; % activity remaining (IR): 87%

**Q.** Cc1cc(=O)n(C2CCCC2)c2nc(Nc3ccc(N4CC5CC(C4)N5C)cc3)ncc12 [Compound 9] was tested. Which “% activity remaining” value (IGF-1R) did it give?
**A.** The value was 18%.

**Q.** And the IC50 (IGF-1R; radiometric filter binding panel, read-out: IGF-1R pIC50 (converted))?
**A.** Its IC50 is 1050 nM.

**Q.** What about the “% activity remaining” value (MELK) of the same compound?
**A.** Its value is 6%.

**Q.** What about the “MELK pIC50” value (MELK; [1]) of the same compound?
**A.** The value was greater than 7.

**Q.** And the IC50 (MELK; radiometric filter binding panel, read-out: MELK pIC50 (converted))?
**A.** The IC50 was 53.7 nM.

**Q.** And the “% activity remaining” value (ULK2)?
**A.** The value was 17%.

**Q.** What about the “ULK2 pIC50” value (ULK2; [1]) of the same compound?
**A.** Its value is 7.4 and 7.39.

**Q.** And the “% activity remaining” value (JAK3)?
**A.** The value was 22%.

**Q.** And the “% activity remaining” value (TAK1)?
**A.** The value was 6%.

**Q.** And the IC50 (TAK1; radiometric filter binding panel, read-out: TAK1 pIC50 (converted))?
**A.** The IC50 was 209 nM.

**Q.** And the “% activity remaining” value (IR)?
**A.** Its value is 14%.

**Q.** And the IC50 (IR; radiometric filter binding panel, read-out: IR pIC50 (converted))?
**A.** Its IC50 is 263 nM.
